Tests used:
B-RAF^V600E = target: T1, B-RAF^V600E (Homo sapiens, UniProt P15056, V600E); test: HotSpot kinase assay (RBC), B-RAF^V600E; format: biochemical; conditions: 10 µM ATP, 10-dose singlicate IC50 mode
T1 construct: purchased Reaction Biology Corporation (RBC), Kinase HotSpot service

786-0 = test: NCI-60 five-dose SRB assay; format: cell-based; conditions: Homo sapiens; 786-0, Renal cancer, five-dose test
Protocol: (§1) The anticancer screening of target compounds over a full panel of 60 human cancer cell lines was carried out using Sulforhodamine B (SRB) assay at the National Cancer Institute (NCI), Bethesda, Maryland, USA, employing the standard protocol.

A498 = test: NCI-60 five-dose SRB assay; format: cell-based; conditions: Homo sapiens; A498, Renal cancer, five-dose test
Protocol: as §1

A549/ATCC = test: NCI-60 five-dose SRB assay; format: cell-based; conditions: Homo sapiens, NSCL cancer, five-dose test
Protocol: as §1

ACHN = test: NCI-60 five-dose SRB assay; format: cell-based; conditions: Homo sapiens, Renal cancer, five-dose test
Protocol: as §1

BT-549 = test: NCI-60 five-dose SRB assay; format: cell-based; conditions: Homo sapiens; BT-549, Breast cancer, five-dose test
Protocol: as §1

CCRF-CEM = test: NCI-60 five-dose SRB assay; format: cell-based; conditions: Homo sapiens, Leukemia, five-dose test
Protocol: as §1

COLO 205 = test: NCI-60 five-dose SRB assay; format: cell-based; conditions: Homo sapiens; COLO 205, Colon cancer, five-dose test
Protocol: as §1

DU-145 = test: NCI-60 five-dose SRB assay; format: cell-based; conditions: Homo sapiens; DU-145, Prostate cancer, five-dose test
Protocol: as §1

EKVX = test: NCI-60 five-dose SRB assay; format: cell-based; conditions: Homo sapiens, NSCL cancer, five-dose test
Protocol: as §1

HCT-116 = test: NCI-60 five-dose SRB assay; format: cell-based; conditions: Homo sapiens; HCT-116, Colon cancer, five-dose test
Protocol: as §1

HCT-15 = test: NCI-60 five-dose SRB assay; format: cell-based; conditions: Homo sapiens; HCT-15, Colon cancer, five-dose test
Protocol: as §1

HOP-62 = test: NCI-60 five-dose SRB assay; format: cell-based; conditions: Homo sapiens; HOP-62, NSCL cancer, five-dose test
Protocol: as §1

IGROV1 = test: NCI-60 five-dose SRB assay; format: cell-based; conditions: Homo sapiens, IGROV-1; IGROV1, Ovarian cancer, five-dose test
Protocol: as §1

K-562 = test: NCI-60 five-dose SRB assay; format: cell-based; conditions: Homo sapiens, K562; K-562, Leukemia, five-dose test
Protocol: as §1

KM12 = test: NCI-60 five-dose SRB assay; format: cell-based; conditions: Homo sapiens; KM12, Colon cancer, five-dose test
Protocol: as §1

MALME-3M = test: NCI-60 five-dose SRB assay; format: cell-based; conditions: Homo sapiens, Melanoma, five-dose test
Protocol: as §1

MCF7 = test: NCI-60 five-dose SRB assay; format: cell-based; conditions: Homo sapiens; MCF7, Breast cancer, five-dose test
Protocol: as §1

NCI-H226 = test: NCI-60 five-dose SRB assay; format: cell-based; conditions: Homo sapiens; NCI-H226, NSCL cancer, five-dose test
Protocol: as §1

NCI-H23 = test: NCI-60 five-dose SRB assay; format: cell-based; conditions: Homo sapiens; NCI-H23, NSCL cancer, five-dose test
Protocol: as §1

NCI-H460 = test: NCI-60 five-dose SRB assay; format: cell-based; conditions: Homo sapiens; NCI-H460, NSCL cancer, five-dose test
Protocol: as §1

NCI-H522 = test: NCI-60 five-dose SRB assay; format: cell-based; conditions: Homo sapiens; NCI-H522, NSCL cancer, five-dose test
Protocol: as §1

OVCAR-3 = test: NCI-60 five-dose SRB assay; format: cell-based; conditions: Homo sapiens; OVCAR-3, Ovarian cancer, five-dose test
Protocol: as §1

OVCAR-4 = test: NCI-60 five-dose SRB assay; format: cell-based; conditions: Homo sapiens; OVCAR-4, Ovarian cancer, five-dose test
Protocol: as §1

OVCAR-5 = test: NCI-60 five-dose SRB assay; format: cell-based; conditions: Homo sapiens; OVCAR-5, Ovarian cancer, five-dose test
Protocol: as §1

OVCAR-8 = test: NCI-60 five-dose SRB assay; format: cell-based; conditions: Homo sapiens; OVCAR-8, Ovarian cancer, five-dose test
Protocol: as §1

RPMI-8226 = test: NCI-60 five-dose SRB assay; format: cell-based; conditions: Homo sapiens; RPMI-8226, Leukemia, five-dose test
Protocol: as §1

RXF 393 = test: NCI-60 five-dose SRB assay; format: cell-based; conditions: Homo sapiens; RXF 393, Renal cancer, five-dose test
Protocol: as §1

SF-268 = test: NCI-60 five-dose SRB assay; format: cell-based; conditions: Homo sapiens; SF-268, CNS cancer, five-dose test
Protocol: as §1

SK-MEL-28 = test: NCI-60 five-dose SRB assay; format: cell-based; conditions: Homo sapiens; SK-MEL-28, Melanoma, five-dose test
Protocol: as §1

SK-MEL-5 = test: NCI-60 five-dose SRB assay; format: cell-based; conditions: Homo sapiens; SK-MEL-5, Melanoma, five-dose test
Protocol: as §1

SK-OV-3 = test: NCI-60 five-dose SRB assay; format: cell-based; conditions: Homo sapiens; SK-OV-3, Ovarian cancer, five-dose test
Protocol: as §1

SN12C = test: NCI-60 five-dose SRB assay; format: cell-based; conditions: Homo sapiens, Renal cancer, five-dose test
Protocol: as §1

SNB-75 = test: NCI-60 five-dose SRB assay; format: cell-based; conditions: Homo sapiens; SNB-75, CNS cancer, five-dose test
Protocol: as §1

SR = test: NCI-60 five-dose SRB assay; format: cell-based; conditions: Homo sapiens, Leukemia, five-dose test
Protocol: as §1

SW-620 = test: NCI-60 five-dose SRB assay; format: cell-based; conditions: Homo sapiens; SW-620, Colon cancer, five-dose test
Protocol: as §1

T-47D = test: NCI-60 five-dose SRB assay; format: cell-based; conditions: Homo sapiens, T47D, Breast cancer, five-dose test
Protocol: as §1

UACC-257 = test: NCI-60 five-dose SRB assay; format: cell-based; conditions: Homo sapiens; UACC-257, Melanoma, five-dose test
Protocol: as §1

UACC-62 = test: NCI-60 five-dose SRB assay; format: cell-based; conditions: Homo sapiens; UACC-62, Melanoma, five-dose test
Protocol: as §1

MDA-MB-231/ATCC = test: cells; conditions: Homo sapiens
Protocol: as §1

MDA-MB-468 = test: cells; conditions: Homo sapiens
Protocol: as §1

PC-3 = test: cells; conditions: Homo sapiens
Protocol: as §1

T1 sequence (P15056 whole entry V600E): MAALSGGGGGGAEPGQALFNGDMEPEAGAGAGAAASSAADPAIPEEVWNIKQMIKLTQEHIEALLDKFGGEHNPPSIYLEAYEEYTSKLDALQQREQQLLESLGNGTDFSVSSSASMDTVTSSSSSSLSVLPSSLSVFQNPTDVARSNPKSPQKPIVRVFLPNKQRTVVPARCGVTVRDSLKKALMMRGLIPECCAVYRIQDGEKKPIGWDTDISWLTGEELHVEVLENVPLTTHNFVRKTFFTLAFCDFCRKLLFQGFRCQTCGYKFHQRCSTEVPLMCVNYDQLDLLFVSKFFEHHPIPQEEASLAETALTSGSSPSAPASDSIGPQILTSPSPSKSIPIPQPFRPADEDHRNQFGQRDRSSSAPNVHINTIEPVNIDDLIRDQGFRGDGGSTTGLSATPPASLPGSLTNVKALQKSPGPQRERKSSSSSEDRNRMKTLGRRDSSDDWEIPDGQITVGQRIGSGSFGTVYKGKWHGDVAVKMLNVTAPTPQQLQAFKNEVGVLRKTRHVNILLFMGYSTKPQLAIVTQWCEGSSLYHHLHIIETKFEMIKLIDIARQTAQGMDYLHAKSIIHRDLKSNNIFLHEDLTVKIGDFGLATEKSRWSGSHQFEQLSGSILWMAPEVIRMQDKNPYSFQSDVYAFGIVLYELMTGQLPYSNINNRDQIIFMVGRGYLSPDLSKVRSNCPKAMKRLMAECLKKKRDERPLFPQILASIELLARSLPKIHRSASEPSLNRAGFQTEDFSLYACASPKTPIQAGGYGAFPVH

## COc1cccc2nc(Nc3cccc(NC(=O)c4ccc(CN5CCN(C)CC5)c(C(F)(F)F)c4)c3)ccc12 [Compound 14a, 4-((4-methylpiperazin-1-yl)methyl)-N-(3-((5-methoxyquinolin-2-yl)amino)phenyl)-3-(trifluoromethyl)benzamide]
B-RAF^V600E
  IC50: 498 ± 35.8 nM
786-0
  GI50: 1760 nM
A498
  GI50: 2000 nM
A549/ATCC
  GI50: 2440 nM
ACHN
  GI50: 2050 nM
BT-549
  GI50: 7010 nM
CCRF-CEM
  GI50: 2100 nM
COLO 205
  GI50: 1790 nM
DU-145
  GI50: 1980 nM
EKVX
  GI50: 2100 nM
HCT-116
  GI50: 1820 nM
HCT-15
  GI50: 1780 nM
HOP-62
  GI50: 1560 nM
IGROV1
  GI50: 2250 nM
K-562
  GI50: 2700 nM
KM12
  GI50: 2130 nM
MALME-3M
  GI50: 1650 nM
MCF7
  GI50: 1570 nM
NCI-H226
  GI50: 4630 nM
NCI-H23
  GI50: 1910 nM
NCI-H460
  GI50: 1710 nM
NCI-H522
  GI50: 1790 nM
OVCAR-3
  GI50: 2150 nM
OVCAR-4
  GI50: 2210 nM
OVCAR-5
  GI50: 1840 nM
OVCAR-8
  GI50: 3090 nM
RPMI-8226
  GI50: 2780 nM
RXF 393
  GI50: 1730 nM
SF-268
  GI50: 1690 nM
SK-MEL-28
  GI50: 1710 nM
SK-MEL-5
  GI50: 1620 nM
SK-OV-3
  GI50: 9220 nM
SN12C
  GI50: 1710 nM
SNB-75
  GI50: 1600 nM
SR
  GI50: 1850 nM
SW-620
  GI50: 1730 nM
T-47D
  GI50: 2280 nM
UACC-257
  GI50: 1980 nM
UACC-62
  GI50: 1750 nM
MDA-MB-231/ATCC
  GI50: 1770 nM
MDA-MB-468
  GI50: 1920 nM
PC-3
  GI50: 1700 nM
